ChEMBL document CHEMBL3994622, “Design and synthesis of new RAF kinase-inhibiting antiproliferative quinoline derivatives. Part 2: Diarylurea derivatives” (Eur J Med Chem, 2017)

What was measured:
Assay type in all cases: functional
[1] = system: COLO 205; test: Growth inhibition of human COLO205 cells assessed as cell growth at 0.003 uM incubated for 48 hrs by sulforhodamine B assay relative to control; details: COLO 205, 48 h, read-out: Activity
[2] = system: U-251; test: Growth inhibition of human U251 cells assessed as cell growth at 0.03 uM incubated for 48 hrs by sulforhodamine B assay relative to control; details: U-251, 48 h, read-out: Activity
[3] = system: K562; test: Growth inhibition of human K562 cells assessed as cell growth at 0.03 uM incubated for 48 hrs by sulforhodamine B assay relative to control; details: K562, 48 h, read-out: Activity
[4] = system: HT-29; test: Growth inhibition of human HT-29 cells assessed as cell growth at 30 uM incubated for 48 hrs by sulforhodamine B assay relative to control; details: HT-29, 48 h, read-out: Activity
[5] = system: SNB-75; test: Growth inhibition of human SNB75 cells assessed as cell growth at 0.3 uM incubated for 48 hrs by sulforhodamine B assay relative to control; details: SNB-75, 48 h, read-out: Activity
[6] = system: UACC-62; test: Growth inhibition of human UACC62 cells assessed as cell growth at 3 uM incubated for 48 hrs by sulforhodamine B assay relative to control; details: UACC-62, 48 h, read-out: Activity
[7] = system: SW-620; test: Growth inhibition of human SW620 cells assessed as cell growth at 0.03 uM incubated for 48 hrs by sulforhodamine B assay relative to control; details: SW-620, 48 h, read-out: Activity
[8] = system: NCI-H460; test: Growth inhibition of human NCI-H460 cells assessed as cell growth at 0.03 uM incubated for 48 hrs by sulforhodamine B assay relative to control; details: NCI-H460, 48 h, read-out: Activity
[9] = system: KM12; test: Growth inhibition of human KM12 cells assessed as cell growth at 3 uM incubated for 48 hrs by sulforhodamine B assay relative to control; details: KM12, 48 h, read-out: Activity
[10] = system: M14; test: Growth inhibition of human M14 cells assessed as cell growth at 30 uM incubated for 48 hrs by sulforhodamine B assay relative to control; details: M14, 48 h, read-out: Activity
[11] = system: OVCAR-4; test: Growth inhibition of human OVCAR4 cells assessed as cell growth at 30 uM incubated for 48 hrs by sulforhodamine B assay relative to control; details: OVCAR-4, 48 h, read-out: Activity
[12] = system: U-251; test: Growth inhibition of human U251 cells assessed as cell growth at 0.3 uM incubated for 48 hrs by sulforhodamine B assay relative to control; details: U-251, 48 h, read-out: Activity
[13] = system: NCI-H322M; test: Growth inhibition of human NCI-H322M cells assessed as cell growth at 0.3 uM incubated for 48 hrs by sulforhodamine B assay relative to control; details: read-out: Activity
[14] = system: Malme-3M; test: Growth inhibition of human MALME-3M cells assessed as cell growth at 0.03 uM incubated for 48 hrs by sulforhodamine B assay relative to control; details: read-out: Activity
[15] = system: T47D; test: Growth inhibition of human T47D cells assessed as cell growth at 30 uM incubated for 48 hrs by sulforhodamine B assay relative to control; details: read-out: Activity
[16] = system: SNB-75; test: Growth inhibition of human SNB75 cells assessed as cell growth at 0.03 uM incubated for 48 hrs by sulforhodamine B assay relative to control; details: SNB-75, 48 h, read-out: Activity
[17] = system: HCT-116; test: Growth inhibition of human HCT116 cells assessed as cell growth at 3 uM incubated for 48 hrs by sulforhodamine B assay relative to control; details: HCT-116, 48 h, read-out: Activity
[18] = system: OVCAR-4; test: Growth inhibition of human OVCAR4 cells assessed as cell growth at 10 uM incubated for 48 hrs by sulforhodamine B assay relative to control; details: OVCAR-4, 48 h, read-out: Activity
[19] = system: A498; test: Growth inhibition of human A498 cells assessed as cell growth at 10 uM incubated for 48 hrs by sulforhodamine B assay relative to control; details: A498, 48 h, read-out: Activity
[20] = system: HCT-15; test: Growth inhibition of human HCT15 cells assessed as cell growth at 0.01 uM incubated for 48 hrs by sulforhodamine B assay relative to control; details: HCT-15, 48 h, read-out: Activity
[21] = system: ACHN; test: Growth inhibition of human ACHN cells assessed as cell growth at 10 uM incubated for 48 hrs by sulforhodamine B assay relative to control; details: read-out: Activity
[22] = system: UACC-257; test: Growth inhibition of human UACC257 cells assessed as cell growth at 10 uM incubated for 48 hrs by sulforhodamine B assay relative to control; details: UACC-257, 48 h, read-out: Activity
[23] = system: IGROV-1; test: Growth inhibition of human IGROV1 cells assessed as cell growth at 100 uM incubated for 48 hrs by sulforhodamine B assay relative to control; details: IGROV-1, 48 h, read-out: Activity
[24] = system: MOLT-4; test: Growth inhibition of human MOLT4 cells assessed as cell growth at 1 uM incubated for 48 hrs by sulforhodamine B assay relative to control; details: MOLT-4, 48 h, read-out: Activity
[25] = system: HT-29; test: Growth inhibition of human HT-29 cells assessed as cell growth at 1 uM incubated for 48 hrs by sulforhodamine B assay relative to control; details: HT-29, 48 h, read-out: Activity
[26] = system: SK-OV-3; test: Growth inhibition of human SKOV3 cells assessed as cell growth at 10 uM incubated for 48 hrs by sulforhodamine B assay relative to control; details: SK-OV-3, 48 h, read-out: Activity
[27] = system: A549; test: Growth inhibition of human A549/ATCC cells assessed as cell growth at 0.1 uM incubated for 48 hrs by sulforhodamine B assay relative to control; details: A549, 48 h, read-out: Activity
[28] = system: BT-549; test: Growth inhibition of human BT549 cells assessed as cell growth at 100 uM incubated for 48 hrs by sulforhodamine B assay relative to control; details: BT-549, 48 h, read-out: Activity
[29] = system: MDA-MB-435; test: Growth inhibition of human MDA-MB-435 cells assessed as cell growth at 0.1 uM incubated for 48 hrs by sulforhodamine B assay relative to control; details: MDA-MB-435, 48 h, read-out: Activity
[30] = system: SK-MEL-5; test: Growth inhibition of human SK-MEL-5 cells assessed as cell growth at 0.1 uM incubated for 48 hrs by sulforhodamine B assay relative to control; details: SK-MEL-5, 48 h, read-out: Activity
[31] = system: SF-539; test: Growth inhibition of human SF539 cells assessed as cell growth at 10 uM incubated for 48 hrs by sulforhodamine B assay relative to control; details: SF-539, 48 h, read-out: Activity
[32] = system: UO-31; test: Growth inhibition of human UO31 cells assessed as cell growth at 10 uM incubated for 48 hrs by sulforhodamine B assay relative to control; details: UO-31, 48 h, read-out: Activity
[33] = system: LOX IMVI; test: Growth inhibition of human LOXIMVI cells assessed as cell growth at 0.01 uM incubated for 48 hrs by sulforhodamine B assay relative to control; details: read-out: Activity
[34] = system: HCC 2998; test: Growth inhibition of human HCC2998 cells assessed as cell growth at 0.01 uM incubated for 48 hrs by sulforhodamine B assay relative to control; details: HCC 2998, 48 h, read-out: Activity

Row | Compound | growth at 0.003 µM [1] [%] | growth at 0.03 µM [2] [%] | growth at 0.03 µM [3] [%] | growth at 30 µM [4] [%] | growth at 0.3 µM [5] [%] | growth at 3 µM [6] [%] | growth at 0.03 µM [7] [%] | growth at 0.03 µM [8] [%] | growth at 3 µM [9] [%] | growth at 30 µM [10] [%] | growth at 30 µM [11] [%] | growth at 0.3 µM [12] [%] | growth at 0.3 µM [13] [%] | growth at 0.03 µM [14] [%] | growth at 30 µM [15] [%] | growth at 0.03 µM [16] [%] | growth at 3 µM [17] [%] | growth at 10 µM [18] [%] | growth at 10 µM [19] [%] | growth at 0.01 µM [20] [%] | other results
1 | COc1cc2cc(Oc3ccc(NC(=O)Nc4ccc(Cl)c(C(F)(F)F)c4)cc3)c(C)nc2cc1OC | 97 | 97 | 102 | -82 | 90 | 28 | 100 | 105 | 7 | -70 | -62 | 94 | 112 | 100 | -30 | 84 | 7 | – | – | – | –
2 | COc1cc2cc(Oc3ccc(NC(=O)Nc4cc(C(F)(F)F)cc(C(F)(F)F)c4)cc3)c(C)nc2cc1OC | – | – | – | – | – | – | – | – | – | – | – | – | – | – | – | – | – | -31 | -43 | 93 | growth at 10 µM [21]: -57%; growth at 10 µM [22]: -38%; growth at 100 µM [23]: -63%; growth at 1 µM [24]: 55%; growth at 1 µM [25]: 75%; growth at 10 µM [26]: -75%; growth at 0.1 µM [27]: 99%; growth at 100 µM [28]: -61%; growth at 0.1 µM [29]: 98%; growth at 0.1 µM [30]: 101%; growth at 10 µM [31]: -72%; growth at 10 µM [32]: -70%; growth at 0.01 µM [33]: 97%; growth at 0.01 µM [34]: 99%
3 | COc1cc2cc(Oc3ccc(NC(=O)Nc4ccc(Cl)c(Cl)c4)cc3)c(C)nc2cc1OC | – | – | – | – | – | – | – | – | – | – | – | – | – | – | – | – | – | -8 | -8 | 100 | growth at 10 µM [21]: 5%; growth at 10 µM [22]: -23%; growth at 100 µM [23]: -15%; growth at 1 µM [24]: 90%; growth at 1 µM [25]: 108%; growth at 10 µM [26]: 41%; growth at 0.1 µM [27]: 94%; growth at 100 µM [28]: -72%; growth at 0.1 µM [29]: 92%; growth at 0.1 µM [30]: 100%; growth at 10 µM [31]: 29%; growth at 10 µM [32]: 6%; growth at 0.01 µM [33]: 95%; growth at 0.01 µM [34]: 101%
4 | Cc1nc2cc(O)c(O)cc2cc1Oc1ccc(NC(=O)Nc2ccc(Cl)c(Cl)c2)cc1 | 107 | 94 | 110 | 13 | 75 | 91 | 97 | 99 | 95 | -51 | 9 | 87 | 110 | 101 | 10 | 81 | 42 | – | – | – | –
